Data as given in US20200354426A1 (MEDIMMUNE LIMITED, priority 2016, published 2020).
Several values for one entry are separate records, joined by “and”; a condition that tells them apart may be missing. Equal entries are not always repeated. Numbered stars: 1 amine (or outer) side, 2 acyl side, 3 side chain; on linkers, the order of the positions; unused ones are H or OH. Side chains are listed from the residue outwards. Ends that are not written are not given here. Peptide text beside a SMILES is read from it. * marks the point of attachment. γGlu = O=C(O)[C@H](CCC(=O)[*:2])N[*:1]; Palmitoyl = CCCCCCCCCCCCCCCC(=O)*

How the values were obtained:
Assay in all cases: cAMP activity assay in assay medium (assay 1)
Assay type in all cases: cell-based
Human GLP1R = Human GLP1R (Homo sapiens, UniProt P43220); design: expressed in transfected cells; conditions: assay medium; Table 4; read-out: hGLP1R EC50
Human GLP1R, sequence (P43220 24-463): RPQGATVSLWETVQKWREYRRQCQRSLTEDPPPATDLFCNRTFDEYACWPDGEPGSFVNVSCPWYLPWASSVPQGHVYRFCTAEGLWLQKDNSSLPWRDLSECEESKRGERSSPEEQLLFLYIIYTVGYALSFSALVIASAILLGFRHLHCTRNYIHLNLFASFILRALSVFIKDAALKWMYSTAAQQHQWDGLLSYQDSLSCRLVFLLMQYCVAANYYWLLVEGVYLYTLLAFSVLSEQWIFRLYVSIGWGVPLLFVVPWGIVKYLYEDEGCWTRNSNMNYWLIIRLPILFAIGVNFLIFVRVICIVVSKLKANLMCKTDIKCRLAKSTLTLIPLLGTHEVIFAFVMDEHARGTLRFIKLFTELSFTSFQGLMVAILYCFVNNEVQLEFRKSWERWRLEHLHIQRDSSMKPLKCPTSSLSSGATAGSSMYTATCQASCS
From the text: (§1) Biological Activity of Peptides in Cell-Based cAMP Activity Assay (Assay 1):
(§2) All sample dilutions were made in duplicate.

Human GIPr = target: T1, Human GIPr (Homo sapiens, UniProt P48546); conditions: assay medium; Table 4; read-out: hGIPR EC50
T1 construct: expressed in transfected cells
T1 sequence (P48546 22-466): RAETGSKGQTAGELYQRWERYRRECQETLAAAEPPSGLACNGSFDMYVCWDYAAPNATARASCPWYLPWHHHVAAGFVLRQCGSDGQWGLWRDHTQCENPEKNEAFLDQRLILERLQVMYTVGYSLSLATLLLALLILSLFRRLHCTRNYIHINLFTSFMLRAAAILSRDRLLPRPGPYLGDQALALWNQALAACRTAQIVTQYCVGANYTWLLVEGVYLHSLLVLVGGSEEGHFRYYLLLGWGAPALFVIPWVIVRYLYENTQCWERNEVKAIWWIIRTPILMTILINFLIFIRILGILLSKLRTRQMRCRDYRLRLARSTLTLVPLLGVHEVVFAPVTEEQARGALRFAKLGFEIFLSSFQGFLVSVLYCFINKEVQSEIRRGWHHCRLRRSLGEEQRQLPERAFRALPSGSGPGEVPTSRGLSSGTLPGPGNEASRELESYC
From the text: as §1, §2

Human GlucR = target: T2, Human GlucR (Homo sapiens, UniProt P47871); conditions: assay medium; Table 4; read-out: hGlucR EC50
T2 construct: expressed in transfected cells
T2 sequence (P47871 26-477): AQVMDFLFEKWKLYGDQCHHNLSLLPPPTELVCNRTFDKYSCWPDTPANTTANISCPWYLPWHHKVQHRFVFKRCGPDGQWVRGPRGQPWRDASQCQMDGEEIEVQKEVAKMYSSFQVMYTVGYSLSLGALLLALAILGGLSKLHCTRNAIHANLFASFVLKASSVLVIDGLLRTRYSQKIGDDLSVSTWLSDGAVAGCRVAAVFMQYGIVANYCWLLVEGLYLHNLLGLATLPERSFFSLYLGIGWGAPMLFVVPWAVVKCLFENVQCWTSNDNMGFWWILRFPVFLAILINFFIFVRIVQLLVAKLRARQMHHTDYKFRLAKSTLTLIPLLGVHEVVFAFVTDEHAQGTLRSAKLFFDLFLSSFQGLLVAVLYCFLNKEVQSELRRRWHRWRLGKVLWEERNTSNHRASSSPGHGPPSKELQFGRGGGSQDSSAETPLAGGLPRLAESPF
From the text: as §1, §2

Row | Compound | EC50 (Human GLP1R) [nM] | EC50 (Human GIPr) [nM] | EC50 (Human GlucR)
1 | CCCCCCCCCCCCCCCC(=O)N[C@@H](CCC(=O)NCCCC[C@H](NC(=O)[C@H](CC(=O)O)NC(=O)[C@H](CO)NC(=O)[C@@H](NC(=O)[C@H](Cc1ccccc1)NC(=O)[C@@H](NC(=O)CNC(=O)[C@H](CCC(N)=O)NC(=O)[C@H](CO)NC(=O)[C@@H](N)Cc1c[nH]cn1)[C@@H](C)O)[C@@H](C)O)C(=O)N[C@@H](CO)C(=O)N[C@@H](CCCCN)C(=O)N[C@@H](Cc1ccc(O)cc1)C(=O)N[C@@H](CC(C)C)C(=O)N[C@@H](CC(=O)O)C(=O)N[C@@H](CO)C(=O)N[C@@H](CCC(=O)O)C(=O)N[C@@H](CCCNC(=N)N)C(=O)N[C@@H](C)C(=O)N[C@@H](CCCNC(=N)N)C(=O)N[C@@H](CC(=O)O)C(=O)N[C@@H](Cc1ccccc1)C(=O)N[C@H](C(=O)N[C@@H](C)C(=O)N[C@@H](Cc1c[nH]c2ccccc12)C(=O)N[C@@H](CC(C)C)C(=O)N[C@@H](CCC(=O)O)C(=O)N[C@@H](C)C(=O)NCC(=O)NCC(N)=O)C(C)C)C(=O)O [g798] (H-HSQGTFTSDK([γGlu-Palmitoyl])SKYLDSERARDFVAWLEAGG-NH2; N-terminus assumed) | 0.00907 | 1.51 | 
2 | CCCCCCCCCCCCCCCC(=O)N[C@@H](CCC(=O)NCCCC[C@H](NC(=O)[C@H](Cc1ccc(O)cc1)NC(=O)[C@H](CCCNC(=N)N)NC(=O)[C@H](CO)NC(=O)[C@H](Cc1ccc(O)cc1)NC(=O)[C@H](CC(=O)O)NC(=O)[C@H](CO)NC(=O)[C@@H](NC(=O)[C@H](Cc1ccccc1)NC(=O)[C@@H](NC(=O)CNC(=O)[C@H](CCC(N)=O)NC(=O)[C@H](CO)NC(=O)[C@@H](N)Cc1c[nH]cn1)[C@@H](C)O)[C@@H](C)O)C(=O)N[C@@H](CC(=O)O)C(=O)N[C@@H](CO)C(=O)N[C@@H](CCC(=O)O)C(=O)N[C@@H](CCCNC(=N)N)C(=O)N[C@@H](C)C(=O)N[C@@H](CCCNC(=N)N)C(=O)N[C@@H](CC(=O)O)C(=O)N[C@@H](Cc1ccccc1)C(=O)N[C@H](C(=O)N[C@@H](C)C(=O)N[C@@H](Cc1c[nH]c2ccccc12)C(=O)N[C@@H](CC(C)C)C(=O)N[C@H](C(=O)N[C@@H](C)C(=O)NCC(=O)NCC(N)=O)C(C)C)C(C)C)C(=O)O [g821] | 0.0558 |  | 0.00463 nM
3 | CCCCCCCCCCCCCCCC(=O)N[C@@H](CCC(=O)NCCCC[C@H](NC(=O)[C@H](C)NC(=O)[C@H](CCCNC(=N)N)NC(=O)[C@H](CCCNC(=N)N)NC(=O)[C@H](CO)NC(=O)[C@H](CC(=O)O)NC(=O)[C@H](CC(C)C)NC(=O)[C@H](Cc1ccc(O)cc1)NC(=O)[C@H](CCCCN)NC(=O)[C@H](CO)NC(=O)[C@H](Cc1ccc(O)cc1)NC(=O)[C@H](CC(=O)O)NC(=O)[C@H](CO)NC(=O)[C@@H](NC(=O)[C@H](Cc1ccccc1)NC(=O)[C@@H](NC(=O)CNC(=O)[C@H](CCC(N)=O)NC(=O)[C@H](CO)NC(=O)[C@@H](N)Cc1c[nH]cn1)[C@@H](C)O)[C@@H](C)O)C(=O)N[C@@H](CC(=O)O)C(=O)N[C@@H](Cc1ccccc1)C(=O)N[C@H](C(=O)N[C@@H](CCC(N)=O)C(=O)N[C@@H](Cc1c[nH]c2ccccc12)C(=O)N[C@@H](CC(C)C)C(=O)N[C@@H](CCC(=O)O)C(=O)N[C@@H](C)C(=O)NCC(=O)NCC(N)=O)C(C)C)C(=O)O [g744] | 2.45 |  | 0.0392 nM
4 | CCCCCCCCCCCCCCCC(=O)N[C@@H](CCC(=O)NCCCC[C@H](NC(=O)[C@H](CO)NC(=O)[C@H](Cc1ccc(O)cc1)NC(=O)[C@H](CC(=O)O)NC(=O)[C@H](CO)NC(=O)[C@@H](NC(=O)[C@H](Cc1ccccc1)NC(=O)[C@@H](NC(=O)CNC(=O)[C@H](CCC(N)=O)NC(=O)[C@H](CO)NC(=O)[C@@H](N)Cc1c[nH]cn1)[C@@H](C)O)[C@@H](C)O)C(=O)N[C@@H](Cc1ccc(O)cc1)C(=O)N[C@@H](CC(C)C)C(=O)N[C@@H](CC(=O)O)C(=O)N[C@@H](CO)C(=O)N[C@@H](CCC(=O)O)C(=O)N[C@@H](CCCNC(=N)N)C(=O)N[C@@H](C)C(=O)N[C@@H](CCC(N)=O)C(=O)N[C@@H](CC(=O)O)C(=O)N[C@@H](Cc1ccccc1)C(=O)N[C@H](C(=O)N[C@@H](CCC(N)=O)C(=O)N[C@@H](Cc1c[nH]c2ccccc12)C(=O)N[C@@H](CC(C)C)C(=O)N[C@H](C(=O)N[C@@H](C)C(=O)NCC(=O)NCC(N)=O)C(C)C)C(C)C)C(=O)O [g702] (H-HSQGTFTSDYSK([γGlu-Palmitoyl])YLDSERAQDFVQWLVAGG-NH2; N-terminus assumed) | 3.35 |  | 1.49 nM
5 | HSQGTFTSDYSKYLDSRRAQDFVQWLVRGGPSSGAPPPSK-NH2 [g319] | 0.0361 |  | 0.0104 nM
6 | CCCCCCCCCCCCCCCC(=O)N[C@@H](CCC(=O)NCCCC[C@H](NC(=O)[C@H](CO)NC(=O)[C@H](CC(=O)O)NC(=O)[C@H](CC(C)C)NC(=O)[C@H](Cc1ccc(O)cc1)NC(=O)[C@H](CCCCN)NC(=O)[C@H](CO)NC(=O)[C@H](Cc1ccc(O)cc1)NC(=O)[C@H](CC(=O)O)NC(=O)[C@H](CO)NC(=O)[C@@H](NC(=O)[C@H](Cc1ccccc1)NC(=O)[C@@H](NC(=O)CNC(=O)[C@H](CCC(N)=O)NC(=O)CNC(=O)[C@@H](N)Cc1c[nH]cn1)[C@@H](C)O)[C@@H](C)O)C(=O)N[C@@H](CCCNC(=N)N)C(=O)N[C@@H](C)C(=O)N[C@@H](C)C(=O)N[C@@H](CC(=O)O)C(=O)N[C@@H](Cc1ccccc1)C(=O)N[C@H](C(=O)N[C@@H](C)C(=O)N[C@@H](Cc1c[nH]c2ccccc12)C(=O)N[C@@H](CC(C)C)C(=O)N[C@H](C(=O)N[C@@H](C)C(=O)NCC(=O)NCC(N)=O)C(C)C)C(C)C)C(=O)O [g736] (H-HGQGTFTSDYSKYLDSK([γGlu-Palmitoyl])RAADFVAWLVAGG-NH2; N-terminus assumed) | 0.0854 |  | 0.919 nM and 0.92 nM
7 | CCCCCCCCCCCCCCCC(=O)NCCCC[C@H](NC(=O)[C@H](CO)NC(=O)[C@H](CO)NC(=O)CNC(=O)CNC(=O)[C@H](CO)NC(=O)[C@H](CO)NC(=O)CNC(=O)CNC(=O)[C@H](CCCNC(=N)N)NC(=O)[C@@H](NC(=O)[C@H](CC(C)C)NC(=O)[C@H](Cc1c[nH]c2ccccc12)NC(=O)[C@H](CCC(N)=O)NC(=O)[C@@H](NC(=O)[C@H](Cc1ccccc1)NC(=O)[C@H](CC(=O)O)NC(=O)[C@H](CCC(N)=O)NC(=O)[C@H](C)NC(=O)[C@H](CCCNC(=N)N)NC(=O)[C@H](CCCNC(=N)N)NC(=O)[C@H](CO)NC(=O)[C@H](CC(=O)O)NC(=O)[C@H](CC(C)C)NC(=O)[C@H](Cc1ccc(O)cc1)NC(=O)[C@H](CCCCN)NC(=O)[C@H](CO)NC(=O)[C@H](Cc1ccc(O)cc1)NC(=O)[C@H](CC(=O)O)NC(=O)[C@H](CO)NC(=O)[C@@H](NC(=O)[C@H](Cc1ccccc1)NC(=O)[C@@H](NC(=O)CNC(=O)[C@H](CCC(N)=O)NC(=O)[C@H](CO)NC(=O)[C@@H](N)Cc1c[nH]cn1)[C@@H](C)O)[C@@H](C)O)C(C)C)C(C)C)C(N)=O [g318] | 1.14 |  | 9.04 nM
